In US20140228318A1, “Curcumin formulations and methods for making such formulations” (Sanford Research/USD, priority 2010, published 2014):
pIC50: −log10 of the molar value.

Assays:
Type in all cases: cell-based
[1] = tested on: DU145 prostate cancer cells; test: In vitro cytotoxicity / cell proliferation (MTS assay); conditions: Homo sapiens, DU-145, 48 h, DU145, 2 days, read-out: IC50 (concentration of drug required to kill 50% of cells)
Experimental: (§1) To examine the anti-cancer activity of the CD-CUR inclusion complex (CD-30), cell proliferation assays were performed using C4-2 and DU145 prostate cancer cell lines. Prostate cancer cells (5000 cells/well in 100 μL media) were seeded in 96-well plates and allowed to attach overnight. […] Media containing equivalent amounts of CD in PBS or DMSO was used as the control. […] The reagent (25 μL/well) was added to each well and plates were incubated for 3 hrs at 37° C. The color intensity was measured at 492 nm using a microplate reader (BioMate 3 UV-Vis spectrophotometer, Thermo Electron Corporation, Hudson, N.H.). […] Just before adding MTS reagents, representative phase contrast microscope images of cells were taken using an Olympus BX 41 microscope (Olympus, Center Valley, Pa., USA).

[2] = tested on: C4-2 prostate cancer cells; test: as above; conditions: 48 h, C4-2, 2 days, read-out: IC50 (concentration of drug required to kill 50% of cells)
Experimental: as §1

[3] = tested on: DU145 prostate cancer cells; test: Colony formation (clonogenic) assay; conditions: DU145, 2 μM, 10 day period
Experimental: (§2) Prostate cancer cells (1000) were seeded in 2 mL media in 6-well plates and allowed 2-3 days to attach and initiate the colony formations. […] The plates were then washed twice with PBS, fixed in chilled methanol, stained with hematoxylin (Fisher Scientific, Fair Lawn, N.J., USA), washed with water and air dried. The number of colonies was counted by a MultiImage™ Cabinet (Alpha Innotech Corporation, San Leandro, Calif., USA) using AlphaEase Fc software. The percent of colonies was calculated using the number of colonies formed in treatment divided by number of colonies formed in DMSO or CD in PBS controls.

[4] = tested on: C4-2 prostate cancer cells; test: Colony formation (clonogenic) assay; conditions: C4-2, 2 μM, 10 day period
Experimental: as §2

COc1cc(/C=C/C(=O)CC(=O)/C=C/c2ccc(O)c(OC)c2)ccc1O [CUR, bis(4-hydroxy-3-methoxyphenyl)-1,6-diene-3,5-dione]
pIC50 [1]: 4.74
pIC50 [2]: 4.71
colonies, percent of DMSO or CD control [3]: 74%
colonies, percent of DMSO or CD control [4]: 96%
